Source: patent US20170290328A1, “COMPOSITIONS AND METHODS FOR APPLYING AGRICULTURAL PRODUCTS” (priority 2014, published 2017)

Assays:
Marestail [1] = test: Additional field trial, Clarity + Roundup PowerMax with adjuvant formulations, weed control; assay type: in vivo, Conyza canadensis; conditions: Clarity tank mixed with Roundup PowerMax, Example 2
Experimental: Additional field trials were performed that compared Sharpen (active ingredient: saflufenacil ([2-chloro-4-fluoro-5-(3-methyl-2,6-dioxo-4-(trifluoromethyl)-3, 6-dihydro-1(2H)-pyrimidinyl)benzoyl]-N-isopropyl-N-methylsulfamide)) or Clarity (active ingredient: diglycolamine salt of 3,6-dichloro-o-anisic acid) to formulations described herein.

Marestail [2] = test: Paraquat Concentrate Trials, weed control evaluation; assay type: in vivo; conditions: Indiana; Paraquat Concentrate Trials (text prints Instigate)
Experimental: (§1) Each treatment was comprised of Paraquat Concentrate applied at 0.45 pt product/ac, diluted and applied at 10 gallons/acre spray volume.
(§2) Trials were conducted in Indiana, North Dakota, and Ohio (1 location per state).
(§3) Weed species varied by location but included glyphosate resistant marestail or kochia. Weed control (herbicide efficacy) evaluations were taken at approximately 7, 14, and 28 days after herbicides were applied.

common lambsquarters = test: as above; assay type: in vivo; conditions: North Dakota; Paraquat Concentrate 0.45 pt product/ac
Experimental: as §1, §2, §3

wheat = test: as above; assay type: in vivo; conditions: North Dakota; Paraquat Concentrate 0.45 pt product/ac
Experimental: as §1, §2, §3

Marestail [3] = test: Instigate Trials, weed control evaluation; assay type: in vivo
Experimental: (§4) Each treatment was comprised of Instigate applied at 3 oz product/ac, diluted and applied at 10 gallons/acre spray volume.
as §2, §3

kochia [4] = test: Instigate Trials, weed control evaluation; assay type: in vivo; conditions: North Dakota, 27 days after treatment, with methylated soybean oil and AU-110 and F emulsifiers
Experimental: as §4, §2, §3

Marestail [5] = test: Roundup PowerMax Plus Sharpen Trials, weed control evaluation; assay type: in vivo
Experimental: (§5) Each treatment was comprised of a mixture of Roundup PowerMax (glyphosate potassium) at 11 oz/ac plus Sharpen (saflufenacil) diluted and applied at 10 gallons/acre spray volume. A-110 is a polymeric nonionic and alkyl and aryl ethoxylate blend emulsifier commercially available from Adjuvants Unlimited (Tulsa, Okla). Emulsifier “D” is a blend of polyoxyalkenes and ethoxylated castor oil and other components.
(§6) Trials were conducted in Indiana, North Dakota, and Ohio (1 location per state). Weed species varied by location but included glyphosate resistant marestail or kochia. Weed control (herbicide efficacy) evaluations were taken at approximately 7, 14, and 28 days after herbicides were applied.

kochia [6] = test: as above; assay type: in vivo; conditions: North Dakota, 10% methyl salicylate substituted for methylated soybean oil
Experimental: as §5, §6

SMILES: COC(=O)c1ccccc1O [methyl salicylate]
- Change of control of glyphosate-resistant marestail (in words) (Marestail [1]): did not increase control
- marestail control (in words) (Marestail [2]): did not increase marestail control
- common lambsquarters control (in words) (common lambsquarters): did not increase control
- wheat control (in words) (wheat): did not increase control
- marestail control (in words) (Marestail [3]; Indiana, Instigate 3 oz product/ac): did not increase marestail control
- marestail control (in words) (Marestail [3]; Ohio, Instigate, with methylated soybean oil and F emulsifier): increased marestail control
- kochia control (in words) (kochia [4]): numerically greater
- marestail control (in words) (Marestail [5]; Indiana, Roundup PowerMax 11 oz/ac plus Sharpen): no increase in control
- marestail control (in words) (Marestail [5]; Ohio, Roundup PowerMax 11 oz/ac plus Sharpen): numerically greater
- marestail control (in words) (Marestail [5]; Ohio, Roundup PowerMax plus Sharpen, 14 days after treatment, with D emulsifier and F emulsifiers): greater
- kochia control (in words) (kochia [6]; with the AU-110 or F emulsifier): not
- kochia control (in words) (kochia [6]; with the D emulsifier): increased control
